Assay results reported in paper PMC8063737 (The Journal of Biological Chemistry, 2021).
“Also recorded” adds a separate entry of the source. Read-outs that look alike come from different tables or passages of the source.

Experiments:
[1] = target: T1, pyrene-labeled F-actin (PFA) (Oryctolagus cuniculus, UniProt P68135); assay: Compound binding to pyrene-labeled F-actin, steady-state fluorescence dose response; set-up: species or system rabbit; details: for effect on PFA (pyrene) fluorescence, dose-response: 2.5–150 μM compound
T1 construct: Rabbit skeletal F-actin was prepared as described previously from acetone powder; from tissue; host or cells: rabbit skeletal muscle (acetone powder)

[2] = target: T2, PFA.C.S1 complex (F-actin with cardiac S1) (Oryctolagus cuniculus, UniProt P68135); assay: Steady-state S1 binding to and ATP-induced dissociation from the PFA.compound complex; assay type: biochemical, bovine; details: 0.7:1 S1:actin, rigor; compound 100 μM except Flu and Dan 50 μM, Mit 10 μM
T2 construct: Rabbit skeletal F-actin was prepared as described previously from acetone powder; tissue Pelfreez Biologicals (bovine left ventricular muscle); host or cells: rabbit skeletal muscle (actin); bovine left ventricular muscle (myosin S1)
Description: We then added Mg.ATP and measured PFA fluorescence (Fig. 8B, peach bars).
Fluorescence spectra of 2 μM PFA in F-Mg buffer were acquired with a Cary spectrophotometer. The sample was placed in a cuvette in a temperature-controlled holder and excited with a Xenon flash lamp at 365 nm with 5 nm slit width. Emission fluorescence intensity was acquired and averaged for 30 s at 407 nm with a 10 nm slit width. […] Fluorescence intensity (F) was corrected for each compound's emission at 407 nm.
Fcalc was determined from normalized fluorescence intensity:(5) Fcalc=(FCompound+F0.7S1)

[3] = target: T3, rigor PFA.S1 complex (cardiac myosin S1) (Oryctolagus cuniculus, UniProt P68135); assay: Stopped-flow ATP-induced dissociation of actin-S1 complex (ATP binding and isomerization); assay type: biochemical, bovine; details: for decrease in rate constant k+2 for isomerization versus control: hyperbolic fits of kobs1 versus [MgATP]; for overall category of compound effect: severe if at least one parameter (K1 or k+2) was affected >3-fold; for effect on K1 (shown as 1/K1), category: versus control
T3 construct: Rabbit skeletal F-actin was prepared as described previously from acetone powder; tissue Pelfreez Biologicals (bovine left ventricular muscle); host or cells: rabbit skeletal muscle (actin); bovine left ventricular muscle (myosin S1)
Description: To determine the equilibrium constant K1 for the formation of the collision complex, A.M.T, the rigor complex of PFA and myosin-S1 complex was formed in one syringe and the Mg.ATP placed in another syringe. […] (Equation 10). The rate constant k+2 was determined from hyperbolic plots of kobs1 versus [MgATP] […] The association equilibrium constant K1 was determined from the ratio of K1k+2/k+2.
Experiments were performed at 25 °C with filtered and degassed solutions. The instrument dead time for single-mix experiments was 1.3 ms. Samples were excited at 365 nm, and pyrene emission fluorescence was acquired with a 2 mm path length and 400 nm long-pass filter. Data analysis was done using the program, ORIGIN (OriginLab Corp).
K1 was determined by mixing the rigor complex of PFA.S1 (A.M) (final concentration of 0.05 μM) with varying final concentrations of MgATP (12.5–1000 μM) in F-Mg buffer in the absence and presence of the compounds, whereby the PFA.compound complex was first made, then mixed with S1, and placed in one syringe, and MgATP solution was placed in the other syringe. The transient curves were fitted to rate constants, kobs, fast and kobs, slow, and with corresponding amplitudes A1 and A2.

[4] = test system: skeletal and cardiac actin; set-up: method as in PMID 32788211; details: cited from earlier work; for isoform-specific differences in actin polymerization: skeletal versus cardiac actin
PFA.C.S1 complex = target: T4, PFA.C.S1 complex (Oryctolagus cuniculus, UniProt P68135); assay: Chase experiment: dissociation of S1 from rigor actin-S1 complex by unlabeled F-actin; assay type: biochemical, bovine; details: 20-fold unlabeled F-actin chase, 0.25 μM PFA.S1, 20 min
T4 construct: Rabbit skeletal F-actin was prepared as described previously from acetone powder; tissue Pelfreez Biologicals (bovine left ventricular muscle); host or cells: rabbit skeletal muscle (actin); bovine left ventricular muscle (myosin S1)
Description: The transient curve was best fitted to a double exponential equation to yield a fast and slow rate constant of 0.01 ± 5E-4 s^−1 and 0.003 ± 4E-4 s^−1, respectively.

[5] = clinical use, cited from earlier work; for liver toxicity: ref 26 for Dan
[6] = test system: PFA.S1 (pyrene-labeled F-actin with cardiac myosin S1); assay: Steady-state PFA fluorescence with myosin-binding drugs (PFA, PFA.S1, plus MgATP); assay type: biochemical, bovine; details: 5 μM drug; for change in PFA fluorescence: 2 μM PFA, no S1; for PFA fluorescence restored by addition of MgATP: 2 μM PFA.S1, 1 mM MgATP, 95% without compound; for effect on S1-induced decrease in pyrene fluorescence: S1 equimolar to actin, no ATP
Description: (§1) Fluorescence spectra of 2 μM PFA in F-Mg buffer were acquired with a Cary spectrophotometer. The sample was placed in a cuvette in a temperature-controlled holder and excited with a Xenon flash lamp at 365 nm with 5 nm slit width. Emission fluorescence intensity was acquired and averaged for 30 s at 407 nm with a 10 nm slit width. A final concentration of 2 μM PFA in F-actin buffer was used. Fluorescence intensity (F) was corrected for each compound's emission at 407 nm.

[7] = test system: equimolar PFA.S1 (2 μM) complex; assay: Effect of nucleotide analogs on PFA-S1 fluorescence; assay type: biochemical, bovine; details: 10 mM PPi
Description: The ten compounds were obtained from Target Molecule Corp and stored at –20 °C as 10 mM stock solutions in DMSO until use. OM and Mava were obtained from Selleck Chemicals and stored as 10 mM stock solutions at –20 °C until use. Sodium vanadate ([…]) and potassium pyrophosphate (PPi) were obtained from Sigma-Aldrich, and stock solutions of 50 mM and 1 M, respectively, were prepared as described previously ([36]). […] To study the effect of pyrophosphate, 10 mM PPi was added to an equimolar PFA.S1 (2 μM) complex. These ligand concentrations were saturating.
as §1

[8] = 2 μM PFA, no MgATP, fits to the Hill equation, read-out: apparent dissociation equilibrium constant, Kd, of compound binding to PFA
[9] = 2 μM PFA, 200-500 μM MgATP, read-out: Kd of compound binding to PFA in the presence of MgATP

| Structure (SMILES) | effect on PFA (pyrene) fluorescence, dose-response ([1]; 2 μM PFA) | decrease in PFA fluorescence of PFA.compound.S1, experimental versus calculated (Fcalc) [2] | overall category of compound effect [3] | polymerization rate of skeletal and cardiac actin [4] | increase in K1 versus control [3] | also measured |
| --- | --- | --- | --- | --- | --- | --- |
| COc1ccccc1OCCNCC(O)COc1cccc2[nH]c3ccccc3c12 (stereo not shown) [Car] | minimal effects | greater decrease in PFA fluorescence | mild (mild effects to be <1.5-fold) | reduced the polymerization rate |  | decrease in rate constant k+2 for isomerization versus control [3]: < 1.5 fold; effect on K1 (shown as 1/K1), category [3]: mild (mild effects to be <1.5-fold) |
| O=C1CN(/N=C/c2ccc(-c3ccc([N+](=O)[O-])cc3)o2)C(O)=N1 [Dan, Dantrolene] | decreased PFA fluorescence with hyperbolic dependence | smaller decrease in PFA fluorescence than expected | severe (severe effects to be >3-fold) | did not have significant effects | ≥ 2 factor | Kd [1, 8]: 17.5 ± 6 µM; rate of dissociation of S1 from rigor actin-S1 complex versus control (PFA.C.S1 complex): No significant change; liver toxicity [5]: causes hepatoxicity |
| OCCN1CCN(CCCN2c3ccccc3Sc3ccc(C(F)(F)F)cc32)CC1 [Flp] |  |  |  | reduced the polymerization rate |  | liver toxicity [5]: cause liver toxicity |
| CC(C)C(=O)Nc1ccc([N+](=O)[O-])c(C(F)(F)F)c1 [Flu] | decreased PFA fluorescence with hyperbolic dependence | smaller decrease in PFA fluorescence than expected | severe (severe effects to be >3-fold) |  | ≥ 2 factor | Kd [1]: 39.6 ± 22 µM; effect of MgATP on fluorescence of PFA–compound complexes ([1]; 200-500 μM MgATP): MgATP relieves the fluorescence inhibition; rate of dissociation of S1 from rigor actin-S1 complex versus control (PFA.C.S1 complex): No significant change |
| C=CCc1ccc(O)c(-c2ccc(O)c(CC=C)c2)c1 [Hon] | minimal effects | no effect | mild (mild effects to be <1.5-fold) | did not have significant effects |  | decrease in rate constant k+2 for isomerization versus control [3]: < 1.5 fold; effect on K1 (shown as 1/K1), category [3]: mild (mild effects to be <1.5-fold) |
| CC(C)n1c(=O)cc(N[C@@H](C)c2ccccc2)[nH]c1=O [Mava, mavacamten] |  |  |  |  |  | change in PFA fluorescence [6]: 1%; PFA fluorescence restored by addition of MgATP [6]: 97%; effect on S1-induced decrease in pyrene fluorescence [6]: no effect |
| OC(c1cc(C(F)(F)F)nc2c(C(F)(F)F)cccc12)C1CCCCN1 (stereo not shown) [Mef] | decreased PFA fluorescence with hyperbolic dependence | smaller decrease in PFA fluorescence than expected | severe (severe effects to be >3-fold) | did not have significant effects | ≥ 2 factor | Kd [1, 9]: 89 ± 28.4 µM; Kd [1, 8]: 20 ± 10 µM; effect of MgATP on fluorescence of PFA–compound complexes ([1]; 200-500 μM MgATP): increased PFA fluorescence in the presence of MgATP; also recorded: MgATP relieves the fluorescence inhibition |
| O=C1c2c(O)ccc(O)c2C(=O)c2c(NCCNCCO)ccc(NCCNCCO)c21 [Mit, mitoxantrone] | decreased PFA fluorescence with hyperbolic dependence | smaller decrease in PFA fluorescence than expected | severe (severe effects to be >3-fold) | reduced the polymerization rate | ≥ 2 factor | Kd [1, 9]: 24.7 ± 5.8 µM; Kd [1, 8]: 7.2 ± 1.2 µM; effect of MgATP on fluorescence of PFA–compound complexes ([1]; 200-500 μM MgATP): increased PFA fluorescence in the presence of MgATP; also recorded: MgATP relieves the fluorescence inhibition; rate of dissociation of S1 from rigor actin-S1 complex versus control (PFA.C.S1 complex): No significant change |
| COC(=O)N1CCN(Cc2cccc(NC(=O)Nc3ccc(C)nc3)c2F)CC1 [OM, omecamtiv mecarbil] |  |  |  |  |  | change in PFA fluorescence [6]: 4%; PFA fluorescence restored by addition of MgATP [6]: 65%; effect on S1-induced decrease in pyrene fluorescence [6]: no effect |
| c1ccc2c(c1)Nc1ccccc1S2 [Phn] | minimal effects | greater decrease in PFA fluorescence | severe (severe effects to be >3-fold) |  | ≥ 2 factor | isoform-specific differences in actin polymerization [4]: showed isoform-specific differences |
| CCCCCNC(=N)N/N=C/c1c[nH]c2ccc(OC)cc12 [Teg] | minimal effects | smaller decrease in PFA fluorescence than expected | severe (severe effects to be >3-fold) |  | ≥ 2 factor | isoform-specific differences in actin polymerization [4]: showed isoform-specific differences; heart failure ([5]; FDA caution or withdrawal): can contribute to heart failure |
| CSc1ccc2c(c1)N(CCC1CCCCN1C)c1ccccc1S2 (stereo not shown) [Thi] |  |  |  | reduced the polymerization rate |  | isoform-specific differences in actin polymerization [4]: showed isoform-specific differences; liver toxicity [5]: cause liver toxicity |
| O=P([O-])([O-])OP(=O)([O-])[O-].[K+].[K+].[K+].[K+] [potassium pyrophosphate (PPi), potassium pyrophosphate] |  |  |  |  |  | restoration of pyrene fluorescence of PFA-S1 [7]: almost completely restored |
